According to article PMC9653166 (Journal of medicinal chemistry, 2022):
“And” between values parts separate entries of the source, which are not always exact repeats. Equal values may be shown once. “Also recorded” adds a separate entry of the source.

Legend:
Sirt5 [1] = molecular target: T1, Sirt5 (Homo sapiens, UniProt Q9NXA8); assay: Coupled enzymatic desuccinylation assay, Sirt5 with CPS1-succK537 peptide; assay type: biochemical; settings: for Effect on Sirt5 activity (in words): coupled assay, 10 and 100 μM compound
T1 sequence (Q9NXA8 34-302): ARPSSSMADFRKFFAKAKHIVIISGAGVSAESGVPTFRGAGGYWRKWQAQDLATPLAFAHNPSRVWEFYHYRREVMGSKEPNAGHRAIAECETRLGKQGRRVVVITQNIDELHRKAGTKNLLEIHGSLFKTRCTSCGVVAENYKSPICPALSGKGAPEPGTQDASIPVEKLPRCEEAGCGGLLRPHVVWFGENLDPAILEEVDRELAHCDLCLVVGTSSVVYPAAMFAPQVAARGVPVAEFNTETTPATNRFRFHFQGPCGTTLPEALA

Sirt2 = molecular target: T2, Sirt2 (Homo sapiens, UniProt Q8IXJ6); assay: Coupled enzymatic deacetylation assay, Sirt2 with α-tubulin-acK25 peptide; assay type: biochemical; settings: for Sirt2 activation (α-tubulin-acK25 deacetylation): 100 μM compound; for Effect on Sirt2 activity (in words): coupled assay, 10 and 100 μM compound
T2 sequence (Q8IXJ6 43-356): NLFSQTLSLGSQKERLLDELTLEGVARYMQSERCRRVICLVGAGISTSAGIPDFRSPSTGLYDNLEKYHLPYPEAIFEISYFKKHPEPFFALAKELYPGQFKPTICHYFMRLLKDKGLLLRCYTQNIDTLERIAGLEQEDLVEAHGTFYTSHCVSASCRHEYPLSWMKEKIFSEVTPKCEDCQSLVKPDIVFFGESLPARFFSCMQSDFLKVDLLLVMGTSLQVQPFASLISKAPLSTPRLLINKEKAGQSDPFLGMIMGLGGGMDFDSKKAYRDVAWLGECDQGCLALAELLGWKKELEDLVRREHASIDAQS

Sirt3 [2] = molecular target: T3, Sirt3 (Homo sapiens, UniProt Q9NTG7); assay: Coupled enzymatic deacetylation assay, Sirt3 with ACS2-acK642 peptide; assay type: biochemical; settings: for Effect on Sirt3 activity (in words): coupled assay, ACS2 peptide, 10 and 100 μM compound
T3 sequence (Q9NTG7 114-380): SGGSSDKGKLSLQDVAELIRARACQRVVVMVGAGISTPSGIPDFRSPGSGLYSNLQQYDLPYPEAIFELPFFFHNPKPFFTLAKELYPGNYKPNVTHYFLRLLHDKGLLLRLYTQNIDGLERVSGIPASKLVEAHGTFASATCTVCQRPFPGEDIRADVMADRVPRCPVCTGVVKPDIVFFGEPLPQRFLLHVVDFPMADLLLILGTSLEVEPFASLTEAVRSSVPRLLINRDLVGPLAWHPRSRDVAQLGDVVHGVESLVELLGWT

[3] = test system: mouse embryonic fibroblasts (MEFs); assay: Mitochondrial mass by FACS; assay type: cell-based; settings: 25 μM, 24 h
Sirt3 [4] = molecular target: T4, Sirt3 (Homo sapiens, UniProt Q9NTG7); assay: Cellular SIRT3 deacetylase activity assay; assay type: cell-based; settings: MDA-MB-231 cells, 50 and 100 μM, 3 h
T4 sequence (Q9NTG7 1-399): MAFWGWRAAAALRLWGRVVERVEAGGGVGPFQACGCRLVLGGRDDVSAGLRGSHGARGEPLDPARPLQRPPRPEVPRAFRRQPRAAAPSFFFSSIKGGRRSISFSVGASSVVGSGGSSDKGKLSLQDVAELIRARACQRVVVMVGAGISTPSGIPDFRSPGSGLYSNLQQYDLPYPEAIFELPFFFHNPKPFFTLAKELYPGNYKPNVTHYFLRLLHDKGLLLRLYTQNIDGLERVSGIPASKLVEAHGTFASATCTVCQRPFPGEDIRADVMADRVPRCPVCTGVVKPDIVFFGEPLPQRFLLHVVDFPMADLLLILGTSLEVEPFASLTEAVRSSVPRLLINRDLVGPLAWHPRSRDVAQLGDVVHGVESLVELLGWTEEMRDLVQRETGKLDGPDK

GDH acetylation = assay: GDH immunoprecipitation and Lys acetylation Western blot, MDA-MB-231 cells; assay type: cell-based, human; settings: 50 μM
MnSOD-Lys68 acetylation = MnSOD-Lys68 acetylation Western blot in MDA-MB-231 cells; assay type: cell-based, human
Sirt5 [5] = molecular target: T5, Sirt5 (Homo sapiens, UniProt Q9NXA8); assay: PDC deacylation assay: PDHA1 desuccinylation by recombinant Sirt5; assay type: biochemical; settings: 100 μM compound, PDHA1 from porcine heart tissue
T5 sequence (Q9NXA8 37-310): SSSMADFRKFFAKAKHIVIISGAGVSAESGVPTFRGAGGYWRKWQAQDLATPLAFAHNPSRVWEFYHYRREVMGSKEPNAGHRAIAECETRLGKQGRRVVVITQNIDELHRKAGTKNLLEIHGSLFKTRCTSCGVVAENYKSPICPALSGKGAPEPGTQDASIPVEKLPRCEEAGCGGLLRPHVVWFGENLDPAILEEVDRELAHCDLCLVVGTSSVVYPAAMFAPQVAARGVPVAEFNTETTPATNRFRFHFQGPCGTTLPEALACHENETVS

GDH = GDH activity assay in MDA-MB-231 cell lysates; assay type: cell-based, human; settings: wild-type MDA-MB-231 cells, 50 μM, 4 or 24 h
glutaminase (GLS) = assay: GLS activity assay in MDA-MB-231 cell lysates; assay type: cell-based, human; settings: MDA-MB-231 cells, 50 μM, 4 and 24 h
MDA-MB-231 cells = assay: Ammonia level assay, MDA-MB-231 cells; assay type: cell-based, human; settings: 50 μM, 4 and 24 h
GOT1 acetylation = GOT1 acetylation Western blot in pancreatic cancer cell lines; assay type: cell-based
Sirt5 [6] = molecular target: T5, Sirt5; settings: cited from earlier work

CCOC(=O)C1=CN(Cc2ccccc2)C=C(C(=O)OCC)C1c1ccc(-c2ccccc2)cc1 [Compound 2]
Effect on Sirt5 activity (in words) (Sirt5 [1]): Sirt5 activation

CCOC(=O)C1=CN(Cc2ccccc2)C=C(C(=O)OCC)C1c1cccc2ccccc12 [Compound 3]
Effect on Sirt5 activity (in words) (Sirt5 [1]): Sirt5 activation

CCOC(=O)C1=CN(Cc2ccccc2)C=C(C(=O)OCC)C1c1ccc2ccccc2c1 [Compound 4]
Sirt5 activation (CPS1-succK537 desuccinylation) (Sirt5 [1]; 10 μM compound): 1.2- to 1.5 fold
Effect on Sirt5 activity (in words) (Sirt5 [1]): Sirt5 activation

CCOC(=O)C1=CN(Cc2ccccc2)C=C(C(=O)OCC)C1c1ccco1 [Compound 5]
Sirt2 activation (α-tubulin-acK25 deacetylation) (Sirt2): less than 1.5 fold
Effect on Sirt2 activity (in words) (Sirt2): weak Sirt2 activation

CCOC(=O)C1=CN(Cc2ccccc2)C=C(C(=O)OCC)C1c1nccs1 [Compound 7]
Effect on Sirt3 activity (in words) (Sirt3 [2]): Sirt3 activation; also recorded: comparable to the parent compound

CCOC(=O)C1=CN(Cc2ccccc2)C=C(C(=O)OCC)C1c1cc2ccccc2s1 [Compound 9]
Sirt5 activation (CPS1-succK537 desuccinylation) (Sirt5 [1]; 100 μM compound): 2- to 3 fold
Effect on Sirt5 activity (in words) (Sirt5 [1]): Sirt5 activation

CCOC(=O)C1=CN(Cc2ccccc2)C=C(C(=O)OCC)C1c1cnc2ccccc2c1 [Compound 10]
Effect on Sirt3 activity (in words) (Sirt3 [2]): Sirt3 activation; also recorded: comparable to the parent compound
Effect on mitochondrial mass ([3]; Sirt3 knock-out MEFs): no significant compound effect
Increase of mitochondrial mass ([3]; wild-type MEFs): about 2.5 fold

CCOC(=O)C1=CN(C(=O)c2ccccc2)C=C(C(=O)OCC)C1c1ccccc1 [Compound 11]
EC50 (Sirt3 [2]): 100 to 200 µM
Sirt3 activity (Sirt3 [2]; 100 μM compound): over 300%
FdL deacetylation (Sirt3) activity in cell lysates (Sirt3 [4]): significant increase in FdL deacetylation activity
GDH overall Lys acetylation (GDH acetylation): decreased acetylation levels
MnSOD-Lys68 acetylation (MnSOD-Lys68 acetylation; MDA-MB-231 cells, 50 μM): decrease in MnSOD-Lys68 acetylation
MnSOD-Lys68 acetylation (MnSOD-Lys68 acetylation; Sirt3 silenced MDA-MB-231 cells, 16 h): did not decrease MnSOD-Lys68 acetylation

CCOC(=O)C1=CN(C(=O)c2ccccc2)C=C(C(=O)OCC)C1c1cccc(Cl)c1 [Compound 13]
Sirt5 activation (CPS1-succK537 desuccinylation) (Sirt5 [1]; 10 μM compound): 1.2- to 1.5 fold
Sirt5-dependent desuccinylation of PDHA1 (Sirt5 [5]): clearly enhanced

CCOC(=O)C1=CN(C(=O)c2ccccc2)C=C(C(=O)OCC)C1c1ccc(Cl)cc1 [Compound 14]
Sirt5 activation (CPS1-succK537 desuccinylation) (Sirt5 [1]; 10 μM compound): 1.2- to 1.5 fold

CCOC(=O)C1=CN(C(=O)c2ccccc2)C=C(C(=O)OCC)C1c1cccc(C)c1 [Compound 16]
GDH activity in cell lysates (GDH): no significant changes in GDH activity
GLS activity in cell lysates (glutaminase (GLS)): no such effects
Ammonia accumulation (MDA-MB-231 cells): no such effects

CCOC(=O)C1=CN(C(=O)c2ccccc2)C=C(C(=O)OCC)C1c1ccc(C)cc1 [Compound 17]
Effect on Sirt5 activity (in words) (Sirt5 [1]): specific Sirt5 activation

CCOC(=O)C1=CN(C(=O)c2ccccc2)C=C(C(=O)OCC)C1c1ccccc1OC [Compound 18]
Effect on Sirt5 activity (in words) (Sirt5 [1]): specific Sirt5 activation

CCOC(=O)C1=CN(C(=O)c2ccccc2)C=C(C(=O)OCC)C1c1cccc(OC)c1 [Compound 19]
Sirt5 activation (CPS1-succK537 desuccinylation) (Sirt5 [1]; 10 μM compound): 1.2- to 1.5 fold
Effect on Sirt5 activity (in words) (Sirt5 [1]): specific Sirt5 activation
GDH activity in cell lysates (GDH): decreased GDH activity
GOT1 acetylation (GOT1 acetylation; S2–013 and Capan1 cell lines, 20 μM, 24 h): decrease GOT1 acetylation
Effect on GOT1 acetylation (GOT1 acetylation; SIRT5 knockout KPC and KPCS cell lines): negligible
GLS activity in cell lysates (glutaminase (GLS)): decreased GLS activity
Ammonia accumulation (MDA-MB-231 cells): blocked ammonia accumulation
In vitro Sirt5 deacetylase activity (Sirt5 [6]): increase in vitro Sirt5 deacetylase activity

CCOC(=O)C1=CN(C(=O)c2ccccc2)C=C(C(=O)OCC)C1c1ccc(OC)cc1 [Compound 20]
Sirt5 activation (CPS1-succK537 desuccinylation) (Sirt5 [1]; 10 μM compound): 1.2- to 1.5 fold

CCOC(=O)C1=CN(C(=O)c2cccc3ccccc23)C=C(C(=O)OCC)C1c1ccccc1 [Compound 21]
Sirt5 activation (CPS1-succK537 desuccinylation) (Sirt5 [1]; 100 μM compound): 2- to 3 fold
Effect on Sirt5 activity (in words) (Sirt5 [1]): specific Sirt5 activation

CCOC(=O)C1=CN(C(=O)c2ccc3ccccc3c2)C=C(C(=O)OCC)C1c1ccccc1 [Compound 22]
Effect on Sirt3 activity (in words) (Sirt3 [2]): comparable to the parent compound
Sirt2 activation (α-tubulin-acK25 deacetylation) (Sirt2): less than 1.5 fold

CCOC(=O)C1=CN(C(=O)c2cnccn2)C=C(C(=O)OCC)C1c1ccccc1 [Compound 23]
Sirt5 activation (CPS1-succK537 desuccinylation) (Sirt5 [1]; 10 μM compound): 1.2- to 1.5 fold
Sirt5 activation (CPS1-succK537 desuccinylation) (Sirt5 [1]; 100 μM compound): 2- to 3 fold
Effect on Sirt5 activity (in words) (Sirt5 [1]): specific Sirt5 activation

CCOC(=O)C1=CN(C(=O)c2cnc3ccccc3n2)C=C(C(=O)OCC)C1c1ccccc1 [Compound 24]
Effect on Sirt3 activity (in words) (Sirt3 [2]): comparable to the parent compound
Sirt5 activation (CPS1-succK537 desuccinylation) (Sirt5 [1]; 10 μM compound): 1.2- to 1.5 fold
Sirt5 activation (CPS1-succK537 desuccinylation) (Sirt5 [1]; 100 μM compound): 2- to 3 fold and 2.5 fold

CCOC(=O)C1=CN(Cc2cc(OC)c(OC)c(OC)c2)C=C(C(=O)OCC)C1c1ccccc1 [Compound 25, Diethyl 4-Phenyl-1-(3,4,5-trimethoxybenzyl)-1,4-dihydropyridine-3,5-dicarboxylate]
Effect on Sirt3 activity (in words) (Sirt3 [2]): lost their effects towards Sirt3

CCOC(=O)C1=CN(Cc2cc(OC)c(OC)c(OC)c2)C=C(C(=O)OCC)C1c1cnc2ccccc2c1 [Compound 26, Diethyl 4-(Quinolin-3-yl)-1-(3,4,5-trimethoxybenzyl)-1,4-dihydropyridine-3,5-dicarboxylate]
Effect on Sirt3 activity (in words) (Sirt3 [2]): lost their effects towards Sirt3

CCOC(=O)C1=CN(C(=O)c2ccccc2)C=C(C(=O)OCC)C1c1ccco1 [Compound 27, Diethyl 1-Benzoyl-4-(furan-2-yl)-1,4-dihydropyridine-3,5-dicarboxylate]
Sirt5 activation (CPS1-succK537 desuccinylation) (Sirt5 [1]; 100 μM compound): about 2 fold

CCOC(=O)C1=CN(C(=O)c2ccccc2)C=C(C(=O)OCC)C1c1ccoc1 [Compound 28, Diethyl 1-Benzoyl-4-(furan-3-yl)-1,4-dihydropyridine-3,5-dicarboxylate]
Sirt5 activation (CPS1-succK537 desuccinylation) (Sirt5 [1]; 100 μM compound): 3- to 3.5 fold

CCOC(=O)C1=CN(C(=O)c2cc(OC)c(OC)c(OC)c2)C=C(C(=O)OCC)C1c1cccc(N)c1 [Compound 38, Diethyl 4-(3-Aminophenyl)-1-(3,4,5-trimethoxybenzoyl)-1,4-dihydropyridine-3,5-dicarboxylate]
Sirt2 activation (α-tubulin-acK25 deacetylation) (Sirt2): 2 fold
Sirt5 activation (CPS1-succK537 desuccinylation) (Sirt5 [1]; 100 μM compound): 3- to 3.5 fold and 3.5 fold

CCOC(=O)C1=CN(C(=O)c2cc(OC)c(OC)c(OC)c2)C=C(C(=O)OCC)C1c1ccco1 [Compound 40, Diethyl 4-(Furan-2-yl)-1-(3,4,5-trimethoxybenzoyl)-1,4-dihydropyridine-3,5-dicarboxylate]
Effect on Sirt2 activity (in words) (Sirt2): smaller effects

CCOC(=O)C1=CN(C(=O)c2cc(OC)c(OC)c(OC)c2)C=C(C(=O)OCC)C1c1ccoc1 [Compound 41, Diethyl 4-(Furan-3-yl)-1-(3,4,5-trimethoxybenzoyl)-1,4-dihydropyridine-3,5-dicarboxylate]
Effect on Sirt2 activity (in words) (Sirt2): smaller effects
